In patent US7468186B2, “Polyomavirus cellular epitopes and uses therefor” (priority 2005, dated 2008):
Where “and” joins values, the source holds several entries; their conditions need not be identical. Equal values may be shown once. Ends that are not written are not given here.

Experiments:
[1] = test system: Jurkat A2.1 cells pulsed with peptide
[2] = test system: splenocytes (CD8+ T cells); assay type: cell-based, HHD-II transgenic mice
[3] = test system: CD8+ T lymphocytes of PBMC; assay: In vitro stimulation of human PBMC with peptide and rIL-2, then tetramer reagent labeling and flow analysis
[4] = target: T1, HLA-A*02 (Homo sapiens, UniProt P04439, D140Y/D185E/D98H/E176V/E277Q/G131W/G231S/I119V/I121R/I166T/I218V/L300P/L318F/N151K/N90K/P208A/P217A/Q86G/Q94H/R138H/R169H/T345S); assay: T2 stabilization/HLA-A*02 binding assay (flow cytometry of surface HLA-A2 on peptide-pulsed T2 cells); conditions: peptide-pulsed TAP-deficient T2 cells, FIG. 1
T1 construct: Levels of surface HLA-A2 were measured by staining peptide-pulsed T2 cells with a fluorescent-labeled antibody to HLA-A2; endogenous in cells; host or cells: T2 cells (TAP-deficient)

[5] = IVS with BKVp44, healthy HLA-A2 donors
[6] = healthy HLA-A2 volunteers, summary of Table IV
[7] = IVS with JCVp100, healthy HLA-A2 donors
[8] = kidney transplant patient KTx#02 PBMC, two weeks with peptide and IL-2, percentage of CD8+ lymphocytes, FIG. 12

## AITEVECFL (Polyomavirus hominis 1) [BK44]
[1]
  recognition by transgenic murine CTL expanded with BK44: recognized
[2]
  IFN-γ secretion by CD8+ cells on peptide stimulation: induced the secretion of IFN-γ by CD8^+ cells
[3]; IVS with BKVp44, double tetramer labeling
  BOTH (tetBKVp44 and tetJCVp36): 1.79 and 0.02 and 5.7 and 0 (8×) and 0.17 and 13.2 and 2.63 and 3.38 and 0.1 and 6.1
[3]; [5]
  % tetBKVp44: 1.89% and 0% (5×) and 6.2% and 0.33% and 0.13% and 14.7% and 3.14% and 3.78% and 0.1% and 0.07% and 6.7% and 0.01% and 0.63%
  % tetJCVp36: 1.72% and 0.01% and 6.6% and 0% (4×) and 0.7% and 0.08% and 0.04% and 15% and 3.07% and 3.65% and 0.1% and 0.07% and 6.2% and 0.05%
[3]; [6]
  individuals with cells positively stained by the BK44 tetramer reagent after in vitro stimulation: 8 of 17
  individuals with cells positively stained by the JC36 tetramer reagent after in vitro stimulation: 8 of 17

## ILKEPVNGV [control HIV peptide]
[2]
  cells producing IFN-γ in response to peptide: 1.94% and 3.2%
  proportion of cells responding with IFN-γ production: 0.35%

## ILMWEAVTL [JC100]
[1]
  recognition by transgenic murine CTL expanded with BK108: recognized
[2]
  cells producing IFN-γ in response to peptide: 17.29% and 22.2%
[3]; IVS with JCVp100, double tetramer labeling
  BOTH (tetBKVp108 and tetJCVp100): 0 (6×) and 0.26 and 5.17 and 0.04 and 4.3 and 0.9
[3]; [7]
  % tetBKVp108: 0.04% (2×) and 0.05% and 0% (9×) and 0.16% and 0.06% and 0.48% and 4.59% and 0.13% and 5.1% and 0.03% and 0.8%
  % tetJCVp100: 0.02% and 0% (11×) and 0.28% and 0.59% and 3.5% and 0.09% and 1.36% and 5.1% and 0.08% and 1.05%
[3]; [6]
  individuals positive for staining with the BK108 tetramer reagent after in vitro stimulation: 5 of 20
[3]; kidney transplant patient KTx#02 PBMC after in vitro stimulation, FIG. 13
  tetramer reagent binding cells that bound both the BKV and JVC tetramer reagents: 63%
[3]; [8]
  cells binding the BKV tetramer reagent after in vitro stimulation: 4.4%
  cells binding the JVC tetramer reagent after in vitro stimulation: 3.7%

## LLIKGGVEV (Polyomavirus hominis 1) [BK27b]
[4]
  HLA-A2 binding (increase in relative fluorescence intensity on T2 cells): highest binding function

## LLMWEAVTV [BK108]
[1]
  result of cytotoxicity and ICC assays: positive results

## NLLMWEAVTV [BK107]
[1]
  result of cytotoxicity and ICC assays: positive results

## SITEVECFL [JC36]
[1]
  recognition by transgenic murine CTL expanded with BK44: recognized
